Test results from patent publication US6828450B2, “Triptycene analogs” (Kansas State University Research Foundation, priority 2000, dated 2004).
pIC50: −log10 of the molar value. Values joined by “and” are separate entries in the source; they are usually repeats but may differ in a detail not shown here. Identical values can stand only once. Like-named read-outs stand apart in the source and are kept apart here.

How the values were obtained:
[1] = test system: L1210 cells; assay: Mitotic index of L1210 cells; type: cell-based, murine; settings: 24 h; for decrease of the % of mitotic cells: DAU 0.256-1.6 μM, highest concentrations of TT2 tested
Experimental: FIG. 18. Effects of the novel TT analog TT2 and DAU on the mitotic index of L1210 cells in vitro. […] Cells (10^6/0.5 ml of RPMI 1640 medium) were incubated in triplicate for 24 h at 37° C. in the presence or absence (control) of 0.256, 0.64, 1.6 and 4 μM TT2, 0.256, 0.64 and 1.6 μM DAU, 0.2 μM VCR or 1 μM H10. After fixation with MeOH:acetic acid (3:1) and staining with 0.1% crystal violet, about 500 cells/slide were scored for mitotic figures and the mitotic index was expressed as the % of mitotic cells in drug-treated cultures divided by the % of mitotic cells in non-treated controls. The mean % of mitotic cells in control at 24 h was 1.86±0.43%.
L1210 cells (about 1×10^6/0.5 ml of FCS-containing RPMI 1640 medium) were incubated in triplicate for 24 h at 37° C. in the presence or absence of TTs or known antimitotic drugs, and collected by centrifugation at 200×g for 10 min to determine their mitotic index. For hypotonic treatment, cells were resuspended in 1 ml of 75 mM KCl for 20 min at 4° C. After fixation in 1 ml of MeOH:acetic acid (3:1), the final cell pellets were collected by centrifugation, resuspended in 75 μl of MeOH:acetic acid (3:1), dispensed onto glass slides, air dried, and stained by spreading 40 μl of 0.1% crystal violet under a coverslip. The % of cells in mitosis was determined microscopically by counting 500 cells/slides. The mitotic index was calculated as the % of mitotic cells in drug-treated cultures divided by the % of mitotic cells in non-treated controls.

[2] = test system: L1210 cells; assay: Protein synthesis (3H-leucine incorporation) in L1210 cells; type: cell-based, murine
Experimental: FIG. 17. Comparison of the concentration-dependent inhibitions of protein synthesis by the TT analog TT2 (●) and DAU (∘) in L1210 cells in vitro. […] Protein synthesis in vehicle-treated control cells was 13,812±1,070 cpm (100±8%; striped area). The blank value (2,436±298 cpm) for cells incubated and pulse-labeled at 2° C. with 2.5 μCi of ^3H-leucine has been substracted from the results.
Except when otherwise specified, the cells were incubated at 37° C. for 90 min in the presence or absence of drugs and then pulse-labeled for an additional 30 min with 1 μCi of [methyl-^3H]thymidine (50 Ci/mmol; Amersham Corp., Arlington Heights, Ill.) to estimate the rate of DNA synthesis. […] After drying the filters, the radioactivity bound to the acid-precipitable material was determined by liquid scintillation counting (LSC) in 10 ml of Bio-Safe NA (Researeh Products International Corp., Mount Prospect, Ill.).

[3] = test system: HL-60-S cells; assay: HL-60-S cell viability assay (MTS:PMS); type: cell-based, human
Description: (§1) The MDR HL-60-RV and HL-60-R8 cells were developed in Melvin S. Center's laboratory (Kansas State University) and similarly maintained in RPMI 1640 medium in the absence of drugs (Marsh W, et al, Cancer Res 46: 4053-4057, 1986; McGrath T et al, and Center M S: Biochem Biophys Res Commun 145: 1171-1176, 1987; Marsh W and Center M S: Cancer Res 47: 5080-5086, 1987; McGrath T, et al, Biochem Pharmacol 38: 3611-3619, 1989; Marquardt D, et al, Cancer Res 50: 1426-1430, 1990; Marquardt D and Center M S: J Natl Cancer Inst 83: 1089-1109, 1991; Krishnamachary N and Center M S; Cancer Res 53: 3658-3661, 1993). Every 4 weeks, these HL-60-RV and HL-60-R8 sublines were exposed to 41 nM DAU for 48 h to stabilize their MDR phenotype. This concentration of DAU, which is not cytotoxic to MDR HL-60 sublines, was removed from the culture medium at least 48 h before experimentation. […] RFs were determined by dividing the IC50 of the MDR cells by that of the sensitive WT parent cell line.

[4] = test system: HL-60-S cells; assay: DNA cleavage in HL-60-S cells; type: cell-based, human; settings: 24 h
Experimental: FIG. 23. Comparison of the concentration-dependent inductions of DNA cleavage by DAU (open symbols in A) and TT2 (closed symbols in B) at 24 h in HL-60-S (circles), HL-60-RV (squares) and HL-60-R8 (triangles) cells containing ^3H-prelabeled DNA in vitro. Results are expressed as [cpm in supernatant/cpm in supernatant+pellet]×100 at 24 h. For untreated controls (14.7±1.7% DNA fragmentation, striped areas), the supernatant (DNA fragments) is 12,815±1,358 cpm and the pellet (intact DNA) is 74,406±9,078 cpm.
as §1
Drug-induced DNA cleavage was determined by intact chromatin precipitation, using L1210, HL-60-S, HL-60-RV and HL-60-R8 cells which were prelabeled with 1 μCi of ^3H-thymidine for 2 h at 37° C., washed with 3×1 ml of ice-cold PBS, collected by centrifugation, and resuspended in fresh FCS-containing RPMI 1640 medium at a density of about 1×10^6 cells/0.5 ml for L1210 and 0.5×10^6 cells/0.5 ml for HL cells. Except when otherwise specified, such cells containing prelabeled DNA were then exposed for 24 h to TTs and drugs known to induce DNA fragmentation. After centrifugation at 200×g for 10 min to discard the drugs and wash the cells, the intact cell pellets were lysed for 30 min in 0.5 ml of HLB, centrifuged at 12,000×g for 30 min to collect the supernatants, and resuspended in 0.5 ml of HLB. After another similar centrifugation, the radioactivities in the pooled supernatants (detergent-soluble low molecular weight DNA fragments) and the pellet (intact chromatin DNA) were determined by LSC: % DNA fragmentation=[cpm in supernatant/cpm in supernatant+pellet]×100. Before being counted in 6 ml of Bio-Safe NA, the intact pelleted chromatin was incubated for 2 h at 60° C. in the presence of 0.6 ml of NCS tissue solubilizer (Amersham).

| pIC50 ([2]; 3 h drug + 1 h pulse-labeling, read-out: IC50, inhibition of protein synthesis in L1210 cells) | pIC50 ([3]; HL-60-S, HL-60-RV and HL-60-R8, day 4, read-out: IC50 values, decrease of cell viability, range over the three lines) | pIC50 ([3]; day 2, read-out: IC50, decrease of HL-60-S cell viability) | pIC50 ([3]; day 4, read-out: IC50, decrease of HL-60-S cell viability) | Compound | effect on the mitotic index [1] | decrease of the % of mitotic cells [1] | times TT2 inhibits viability less effectively than DAU ([3]; HL-60-S) [times] | DNA cleavage, % above control level ([4]; 4 μM) [%] | DNA cleavage, % above control level ([4]; 10 μM) [%] | DNA cleavage, % below control level ([4]; 25 μM) [%] | times greater TT2 than DAU concentrations needed for more than 50% of DNA cleavage ([4]; HL-60-S) | times DAU inhibits protein synthesis more effectively than TT2 ([2]; L1210) [times] | pIC50 ([3]; Homo sapiens, 48 h, read-out: IC50, decrease of HL-60-S cell viability) | pIC50 ([3]; Homo sapiens, 96 h, read-out: IC50, decrease of HL-60-S cell viability) | DNA cleavage, % above control level ([4]; 1.6 μM, control 15% DNA fragmentation) [%] | DNA cleavage, % below control level ([4]; 10 μM) [%] | DNA cleavage, % above control level (submaximal) ([4]; 0.04-0.64 μM DAU) |
| --- | --- | --- | --- | --- | --- | --- | --- | --- | --- | --- | --- | --- | --- | --- | --- | --- | --- |
| 5.22 and ~5.22 | 6.46 to 6.64 | 5.89 | 6.64 | COC1=CC(=O)C2=C(C1=O)C1C3=C(C(=O)C=CC3=O)C2c2ccccc21 (centres unmarked) [TT2, 2-Methoxy-9,10-dihydro-9,10-[1′,2′]benzenoanthracene-1,4,5,8-tetraone] | does not increase | 38-48% | 15 | 37 | 14 | 11 | at least 2.5 times |  |  |  |  |  |  |
|  |  |  |  | COc1cccc2c1C(=O)c1c(O)c3c(c(O)c1C2=O)C[C@@](O)(C(C)=O)C[C@@H]3O[C@H]1C[C@H](N)[C@H](O)[C@H](C)O1 [DAU, daunomycin, reference compound] |  | 74-91% |  | 18 |  | 14 |  | ~3 | 7.10 | 7.82 | 67 | 11 | 11-58% |
